Assay results published in patent publication US6670329B2, “Selenocosmia huwena toxin and analgesic uses thereof” (priority 2000, dated 2003).
“And” between values parts separate entries of the source, which are not always exact repeats. Equal values may be shown once.

Legend:
[1] = tested on: Sprague-Dawley rats; details: rat, in vivo
Procedure: Adult Sprague-Dawley rats were anesthetized with 2% sodium pentobarbital (40 mg/kg, ip.). The neck skin was cut to expose the occipital membrane. HWAP-I, formulated in normal saline, was administered by a PE-10 polyethylene tube (14 cm) inserted into the epidural space (depth of insert: 7 cm) to the site of intumescence at the rats' waist. The insertion position of the tube was confirmed by anatomization after the experiment.
Pain tolerance assays were performed 1-4 days after the operation. A healthy rat was put into a fixed canister with its tail drooping from the bottom of the vessel. There were three spots on the tail labeled for irradiation. The intensity of light was adjusted so that the tail flick latency (TFL) of rat was within 2-4 seconds. The average of TFLs determined three times before drug treatment was deemed the baseline pain threshold of the rat. HWAP-I was administered to the rat using the inserted tube. After 20 minutes, the pain threshold was determined. The analgesic effect (AE) was calculated according the following formula: [formula]
wherein Tp is the TLF post-drug treatment, and TB is the baseline pain threshold.
The upper limit of the increased rate of pain threshold was 200% in order to avoid hurting the skin of rat-tail, e.g.., when the baseline pain threshold was 3 seconds. Irradiation was stopped as soon as the TFL exceeded 9 seconds.
54 rats (160-220 g), of either gender, whose TB basic pain thresholds were within 3-4 seconds, were chosen and divided randomly into six groups of nine rats. The rats in each group were treated with HWAP-I at a dose of 120 μg/kg, 180 μg/kg, 240 μg/kg, 300 μg/kg, 360 μg/kg respectively and with normal saline in control group.

[2] = tested on: mouse phrenic nerve-diaphragm preparation; assay: mouse phrenic nerve-diaphragm assay for inhibition of neuromuscular transmission
[3] = tested on: high-voltage-activated Ca2+ channel expressed in prostaglandin E1 differentiated NG108-15 cells; assay: Ca2+ channel inhibition assay (patch clamp, Ba2+ as charge carrier); assay type: cell-based
Procedure: (§1) Ca^2+ channel Inhibition Assay. […] Cells were cultured in 90% Dulbecco's modified Eagle's medium (DMEM) with 10% newborn calf serum, hypoxanthine aminopterin thymidine supplement and penicillin-streptomycin. Cells were transferred to plates for electrophysiological experiments and cultured with 1% calf serum and […] DMEM. Prostaglandin E1 (10 μM) and 3-isobutyl-1-methylxanthine (50 μM) were added to the medium. Macroscopic Ca^2+ channel currents (filtered at 10 kHz, digitized at […] with a EPC-9 patch clamp amplifier, HEKA Electronics, Germany) were recorded at room temperature using Ba^2+ as the charge carrier. Cells were held at −40 mV potential and then depolarized to 0 mV. […] Inhibition was dose dependent. The EC50 for inhibition was approximately 100 nM (EC50≈100 nM). HWAP-I is highly specific for this channel as the low-voltage-activated Ca^2+ channel was unaffected.

[4] = tested on: low-voltage-activated Ca2+ channel; assay: Ca2+ channel inhibition assay, low-voltage-activated channel; assay type: cell-based
Procedure: as §1

[5] = tested on: rats; assay: rat tail flick pain threshold, subarachnoid space administration; assay type: in vivo; details: for increase of pain threshold: in an hour
Procedure: The method was testing using the rat experimental system. After anesthesia, the neck skin of a rat was cut. The occcipital membrane was exposed and a hole with 1 mm diameter was made with #5 needle. […] The insertion position of the tube was later confirmed by anatomization after experiment.
Assays were performed in 1-3 days after the operation. 28 rats (130-230 g), of either gender, whose basic pain thresholds were within 2-4 seconds, were chosen and divided randomly into four groups of seven rats.

[6] = tested on: New Zealand rabbits; details: rabbit, in vivo

Compound	analgesic effect decreased from maximum to, within a single hour [1]	duration of block of neuromuscular transmission ([2]; 1·10^−5 g/ml)	effect on indirect twitch response ([2]; electrical stimulation of phrenic nerve)	inhibition of the Ca2+ current ([3]; 10 μM, held at −40 mV, depolarized to 0 mV)	EC50 ([3]; NG108-15 cells, room temperature, read-out: EC50 for inhibition of Ca2+ current)	effect on low-voltage-activated Ca2+ channel [4]	adverse effects [1]	analgesic effect [1]	duration time of analgesic effect [1]	increase of pain threshold [1]	duration of analgesic effect compared with morphine hydrochloride (5 μg/kg) ([5]; subarachnoid)	increase of pain threshold ([5]; subarachnoid, 1.5 μg/kg)	duration of analgesic effect ([5]; subarachnoid, 3.0 μg/kg)	increase of pain threshold ([5]; subarachnoid, 3.0 μg/kg)	adverse effects ([5]; subarachnoid, 8 μg/kg, most restored to normal without sequela)	analgesic effect ([5]; subarachnoid, 0.6, 1.5, 3.0 μg/kg)	analgesic effect in formalin pain model [6]	duration of the analgesic effect [6]	toxic side effects [6]
CN1CC[C@]23c4c5ccc(O)c4O[C@H]2[C@@H](O)C=C[C@H]3[C@H]1C5.Cl [morphine, morphine hydrochloride, reference compound]	50%	–	–	–	–	–	–	–	–	–	–	–	–	–	–	–	–	–	–
NH2-Ala-Cys-Lys-Gly-Val-Phe-Asp-Ala-Cys-Thr-Pro-Gly-Lys-Asn-Glu-Cys -Cys-Pro-Asn-Arg-Val-Cys-Ser-Asp-Lys-His-Lys-Trp-Cys-Lys-Trp-Lys-Leu-COOH (H-ACKGVFDACTPGKNECCPNRVCSDKHKWCKWKL-OH; cysteine pairing not given here) [HWAP-I]	–	14.3 ± 3.2 min	inhibition of the indirect twitch response	potent inhibitor	~100 nM	unaffected	ataxia in the quarters	had analgesic effects	over 3 hours	50-70% and 100%	longer than that of morphine	40-50%	over 3 hours	100%	becoming ataxic in the quarters	had analgesic effects	potent and robust analgesic effect	5 to 6 h	no obvious toxic side effects were observed
